Measurements: ChEMBL document CHEMBL3885881, “DrugMatrix”

Species: Rattus norvegicus
Assay: DrugMatrix - Regimen: Daily Repeat
Format: toxicity, organism-based, Sprague-Dawley
Design: regimen Daily Repeat, gender Male, age 6-8 weeks
Settings: in vivo, po, route oral GAVAGE, vehicle .5 % CMC; for ABSOLUTE BASOPHIL / ABSOLUTE EOSINOPHIL / ABSOLUTE LYMPHOCYTE / ABSOLUTE MONOCYTE / ABSOLUTE SEGMENTED NEUTROPHIL / BASOPHIL / EOSINOPHIL / ERYTHROCYTE COUNT / HEMATOCRIT / HEMOGLOBIN / LEUKOCYTE COUNT / LYMPHOCYTE / MEAN CORPUSCULAR HEMOGLOBIN / MEAN CORPUSCULAR HEMOGLOBIN CONCENTRATION / MEAN CORPUSCULAR VOLUME / MONOCYTE / NEUTROPHIL / NUCLEATED RED BLOOD CELLS / PLATELET COUNT: tissue Blood; for ALANINE AMINOTRANSFERASE / ALBUMIN / ALKALINE PHOSPHATASE / ASPARTATE AMINOTRANSFERASE / BLOOD UREA NITROGEN / CARBON DIOXIDE / CHLORIDE / CHOLESTEROL / CREATINE PHOSPHOKINASE / CREATININE / GLUCOSE / LACTATE DEHYDROGENASE / LIPASE / PHOSPHORUS / POTASSIUM / SODIUM / TOTAL BILIRUBIN / TOTAL PROTEIN / URIC ACID: tissue Plasma
[1] = 0 mg/kg, 72 h, dose level Control, time 3 day
[2] = 0 mg/kg, 120 h, dose level Control, time 5 day
[3] = 580 mg/kg, 72 h, dose level High, time 3 day

With `CN1C(=O)COc2c(C(=O)NC3CN4CCC3CC4)cc(Cl)cc21` (centres undefined) [AZASETRON] the “ABSOLUTE BASOPHIL” value [1] was 0 CELLS/uL, the “ABSOLUTE EOSINOPHIL” value [1] was 47.67 CELLS/uL and the “ABSOLUTE LYMPHOCYTE” value [1] was 15937.67 CELLS/uL. The “ABSOLUTE MONOCYTE” value [1] was 138.33 CELLS/uL, the “ABSOLUTE SEGMENTED NEUTROPHIL” value [1] was 1443 CELLS/uL and the BASOPHIL [1] was 0%. The EOSINOPHIL [1] was 0.33%, the “ERYTHROCYTE COUNT” value [1] was 5.45 x10E6/uL and the HEMATOCRIT [1] was 34.43%. The HEMOGLOBIN [1] was 13.38 G/DL, the “LEUKOCYTE COUNT” value [1] was 17.57 x10E3/uL and the LYMPHOCYTE [1] was 90.33%. For the same molecule, the “MEAN CORPUSCULAR HEMOGLOBIN” value [1] was 24.6 pg, the “MEAN CORPUSCULAR HEMOGLOBIN CONCENTRATION” value [1] was 38.88 G/DL and the “MEAN CORPUSCULAR VOLUME” value [1] was 63.27 fL. For the same molecule, the MONOCYTE [1] was 0.83%, the NEUTROPHIL [1] was 8.5% and the “NUCLEATED RED BLOOD CELLS” value [1] was 0 /100WBC. The “PLATELET COUNT” value [1] was 1298 x10E3/uL, the “ALANINE AMINOTRANSFERASE” value [1] was 47.67 u/L and the ALBUMIN [1] was 4.18 G/DL. For the same molecule, the “ALKALINE PHOSPHATASE” value [1] was 398.5 u/L, the “ASPARTATE AMINOTRANSFERASE” value [1] was 93.17 u/L and the “BLOOD UREA NITROGEN” value [1] was 16 mg/dL. For the same molecule, the “CARBON DIOXIDE” value [1] was 29.17 mmol/L, the CHLORIDE [1] was 98.17 MEQ/L and the CHOLESTEROL [1] was 68.83 mg/dL. The “CREATINE PHOSPHOKINASE” value [1] was 467.33 u/L, the CREATININE [1] was 0.14 mg/dL and the GLUCOSE [1] was 151.67 mg/dL. For the same molecule, the “LACTATE DEHYDROGENASE” value [1] was 597.5 u/L, the LIPASE [1] was 9.33 u/L and the PHOSPHORUS [1] was 11.97 mg/dL. The POTASSIUM [1] was 6.43 MEQ/L, the SODIUM [1] was 140.68 MEQ/L and the “TOTAL BILIRUBIN” value [1] was 0.18 mg/dL. For the same molecule, the “TOTAL PROTEIN” value [1] was 5.82 G/DL, the “URIC ACID” value [1] was 1.48 mg/dL and the “ABSOLUTE BASOPHIL” value [2] was 0 CELLS/uL. The “ABSOLUTE EOSINOPHIL” value [2] was 31 CELLS/uL, the “ABSOLUTE LYMPHOCYTE” value [2] was 14327.83 CELLS/uL and the “ABSOLUTE MONOCYTE” value [2] was 102.83 CELLS/uL. For the same molecule, the “ABSOLUTE SEGMENTED NEUTROPHIL” value [2] was 1321.67 CELLS/uL, the BASOPHIL [2] was 0% and the EOSINOPHIL [2] was 0.17%. The “ERYTHROCYTE COUNT” value [2] was 5.79 x10E6/uL, the HEMATOCRIT [2] was 36.1% and the HEMOGLOBIN [2] was 14.15 G/DL. The “LEUKOCYTE COUNT” value [2] was 15.78 x10E3/uL, the LYMPHOCYTE [2] was 90.5% and the “MEAN CORPUSCULAR HEMOGLOBIN” value [2] was 24.48 pg. For the same molecule, the “MEAN CORPUSCULAR HEMOGLOBIN CONCENTRATION” value [2] was 39.22 G/DL, the “MEAN CORPUSCULAR VOLUME” value [2] was 62.4 fL and the MONOCYTE [2] was 0.67%. For the same molecule, the NEUTROPHIL [2] was 8.67%, the “NUCLEATED RED BLOOD CELLS” value [2] was 0.17 /100WBC and the “PLATELET COUNT” value [2] was 1211.67 x10E3/uL. The “ALANINE AMINOTRANSFERASE” value [2] was 49 u/L, the ALBUMIN [2] was 4.27 G/DL and the “ALKALINE PHOSPHATASE” value [2] was 356.67 u/L. For the same molecule, the “ASPARTATE AMINOTRANSFERASE” value [2] was 90.17 u/L, the “BLOOD UREA NITROGEN” value [2] was 20.5 mg/dL and the “CARBON DIOXIDE” value [2] was 29.17 mmol/L. The CHLORIDE [2] was 98 MEQ/L, the CHOLESTEROL [2] was 69.83 mg/dL and the “CREATINE PHOSPHOKINASE” value [2] was 312 u/L. The CREATININE [2] was 0.21 mg/dL, the GLUCOSE [2] was 149.83 mg/dL and the “LACTATE DEHYDROGENASE” value [2] was 322 u/L. For the same molecule, the LIPASE [2] was 10 u/L, the PHOSPHORUS [2] was 12 mg/dL and the POTASSIUM [2] was 6.75 MEQ/L. For the same molecule, the SODIUM [2] was 142.8 MEQ/L, the “TOTAL BILIRUBIN” value [2] was 0.17 mg/dL and the “TOTAL PROTEIN” value [2] was 6.1 G/DL. For the same molecule, the “URIC ACID” value [2] was 1.68 mg/dL, the “ABSOLUTE BASOPHIL” value [3] was 0 CELLS/uL and the “ABSOLUTE EOSINOPHIL” value [3] was 0 CELLS/uL. The “ABSOLUTE LYMPHOCYTE” value [3] was 13751.33 CELLS/uL, the “ABSOLUTE MONOCYTE” value [3] was 160.33 CELLS/uL and the “ABSOLUTE SEGMENTED NEUTROPHIL” value [3] was 1088.33 CELLS/uL. The BASOPHIL [3] was 0%, the EOSINOPHIL [3] was 0% and the “ERYTHROCYTE COUNT” value [3] was 6.01 x10E6/uL. The HEMATOCRIT [3] was 37.33%, the HEMOGLOBIN [3] was 14.57 G/DL and the “LEUKOCYTE COUNT” value [3] was 15 x10E3/uL. For the same molecule, the LYMPHOCYTE [3] was 91.67%, the “MEAN CORPUSCULAR HEMOGLOBIN” value [3] was 24.27 pg and the “MEAN CORPUSCULAR HEMOGLOBIN CONCENTRATION” value [3] was 39.03 G/DL. The “MEAN CORPUSCULAR VOLUME” value [3] was 62.13 fL, the MONOCYTE [3] was 1% and the NEUTROPHIL [3] was 7.33%. For the same molecule, the “NUCLEATED RED BLOOD CELLS” value [3] was 0 /100WBC, the “PLATELET COUNT” value [3] was 1244 x10E3/uL and the “ALANINE AMINOTRANSFERASE” value [3] was 64.33 u/L. For the same molecule, the ALBUMIN [3] was 4.27 G/DL, the “ALKALINE PHOSPHATASE” value [3] was 372.33 u/L and the “ASPARTATE AMINOTRANSFERASE” value [3] was 96.67 u/L. For the same molecule, the “BLOOD UREA NITROGEN” value [3] was 17.33 mg/dL, the “CARBON DIOXIDE” value [3] was 26.67 mmol/L and the CHLORIDE [3] was 99.33 MEQ/L. The CHOLESTEROL [3] was 72.67 mg/dL, the “CREATINE PHOSPHOKINASE” value [3] was 527.67 u/L and the CREATININE [3] was 0.25 mg/dL. For the same molecule, the GLUCOSE [3] was 150 mg/dL, the “LACTATE DEHYDROGENASE” value [3] was 877 u/L and the LIPASE [3] was 9.67 u/L. For the same molecule, the PHOSPHORUS [3] was 11.3 mg/dL, the POTASSIUM [3] was 6.57 MEQ/L and the SODIUM [3] was 141.63 MEQ/L. For the same molecule, the “TOTAL BILIRUBIN” value [3] was 0.23 mg/dL, the “TOTAL PROTEIN” value [3] was 6 G/DL and the “URIC ACID” value [3] was 1.73 mg/dL.
